# Patent publication US20050123477A1, “Benzothiazole derivatives for in vivo imaging of amloid plaques” (priority 2002, published 2005)
# Tests used:
# LogP and delta LogP = assay type: physicochemical
# CACO-2 cells = assay: CACO-2 cell apparent permeability (Papp), BBB model; settings: CACO-2 monolayers in Transwells, 30 minutes at 37° C., donor to acceptor
# Method: Culturing of CACO-2 cells and Determination of Apparent Permeability (Papp) Values:
# The seeding of 12 mm Transwells was as follows for CACO-2. Flasks of confluent cultures were trypsinsed and cells were carefully resuspended, making sure there are no clumps or air bubbles. 1.5 ml of tissue culture medium was placed in the bottom (acceptor) chamber of the wells and 0.5 ml containing 2×10^5 cells in the Transwell (donor chamber) and placed in the incubator. The cells were routinely monitored for adequate trans epithelial electrical resistance (TEER) using an EndOhm Tissue resistance measurement chamber (WPI). The subsequent maintenance and feeding of the cells on the Transwells was as follows: when feeding the wells, the medium was removed from the acceptor chamber (basolateral side) and donor chamber (apical side) of the Transwells. The medium was aspirated off with a pipette connected to a vacuum pump, being careful not to touch the filter. 0.5 ml of growth medium was then placed into the donor chamber and 1.5 ml of growth medium was placed into the acceptor chamber.
# When the TEER values of the CACO-2 cell monolayers in Transwells was around 500 Ωcm^2 (300-800 Ωcm^2 was considered acceptable) permeability experiments were performed in triplicate as follows. All culture media was removed and acceptor and donor chambers were rinsed twice with Eagles Balance Salt Solution (EBSS) (Gibco) at 37° C. 1.5 ml EBSS was added to the acceptor chamber and 0.5 ml EBSS containing radiolabelled compound was added to the donor chamber. Cultures in Transwells were then incubated for 30 minutes at 37° C. at 200 rpm using a Labnet Vortemp. After 30 minutes, 100 μl aliquot was taken from the donor chamber and 750 μl from the acceptor chamber. These aliquots were then counted for radioactivity. The remaining EBSS was removed from the acceptor and donor chambers and then the Transwell was thoroughly rinsed three times la with EBSS. Next, the Transwell membrane (and associated cells) was removed using a scalpel and the amount of radiolabel associated with it was determined.
# Permeability of compounds were determined by calculating their Papp value: Papp=ΔQ/Δt.60.A.Co (cm/sec)
# [1] = Brain Uptake Index (BUI) method; assay type: in vivo
# Method: BUI is calculated according to the following equation: [formula] BUI was performed on three animals from the same test solution for each experiment. Each compound was assayed in duplicate.
# In situ brain perfusion = assay type: in vivo; set-up: unit not given here; settings: unidirectional brain influx constant, perfusion 2-30 minutes
# [2] = Pharmacokinetics / biodistribution; assay type: in vivo, normal male wistar rats; settings: for percentage injected dose, Blood / percentage injected dose, Brain / percentage injected dose, Fat / percentage injected dose, Kidney / percentage injected dose, LI (large intestines) / percentage injected dose, Muscle / percentage injected dose, SI (small intestines) / percentage injected dose, Skin / percentage injected dose, Spleen / percentage injected dose, Stomach / percentage injected dose, inj site / percentage injected dose, liver / percentage injected dose, lung / percentage injected dose, thyroid / percentage injected dose, urine: tail vein
# Method: Compound 1 IMQ1961 prepared by Amersham Biosciences 250 μCi/ml (specific activity 2000Ci/mmol) freshly diluted to give 1 μCi/0.1 ml volume injection bolus. 15 normal male wistar rats 150-180 g (Charles River).
# Male wistar rats were anaethetised briefly prior to injection with Compound 1 (1 μCi, 0.1 ml bolus tail vein). Biodistributions were performed at five time points (5, 15, 30, 60 and 120 mins) in triplicate animals in which tissues from brain, blood, muscle, kidney, spleen, stomach, small intestines, large intestines and faeces, bladder and urine, fat, skin and thyroid were dissected and counted for distribution of the compound in the body in a Wallac Wizzard gamma counter.
# Percentage injected dose calculations were made and plotted using the Qk pharmacokinetics program to determine t½ α, and volume of distribution (VD). Relative retention (RR) and Brain:tissue ratios were calculated as follows; [formula] [formula] Results and Discussion
structure (smiles),measurement,setting,value
"Cc1cc(-c2nc3cc([125I])ccc3s2)ccc1N [Compound 1, 5-[^125I]-iodo-2-(4′-amino-3′-methylphenyl)benzothiazole]",LogP,LogP and delta LogP,1.75
same,ΔLogP,LogP and delta LogP,−0.38
same,Papp,CACO-2 cells,13.7 ×10⁻⁶ cm/s
same,Mean BUI,"[1]; carotid artery bolus, decapitated after 15 seconds, relative to 14C-Butanol",43.6
same,BBB penetration (from BUI),[1]; cut off low/medium 20%,medium to high BBB penetration
same,Kin,In situ brain perfusion,49.8
same,t½ (α) of clearance from brain,[2]; 1 μCi tail vein bolus,12.4 min
same,"relative retention, blood",[2]; 5 minutes,1.04
same,"relative retention, brain",[2]; 5 minutes,1.01
same,thyroid uptake,"[2]; over two hour experiment, indicates in vivo stability to deiodination",< 1%
same,Clearance through the body,"[2]; rat, in vivo",largely via the hepatobiliary system
same,"percentage injected dose, Blood",[2]; 5 min,6.05 % ID
same,"percentage injected dose, Brain",[2]; 5 min,0.94 % ID
same,"percentage injected dose, Fat",[2]; 5 min,30.82 % ID
same,"percentage injected dose, Kidney",[2]; 5 min,3.14 % ID
same,"percentage injected dose, LI (large intestines)",[2]; 5 min,1.53 % ID
same,"percentage injected dose, Muscle",[2]; 5 min,21.49 % ID
same,"percentage injected dose, SI (small intestines)",[2]; 5 min,9.04 % ID
same,"percentage injected dose, Skin",[2]; 5 min,8.92 % ID
same,"percentage injected dose, Spleen",[2]; 5 min,0.69 % ID
same,"percentage injected dose, Stomach",[2]; 5 min,1.82 % ID
same,"percentage injected dose, inj site",[2]; 5 min,2.12 % ID
same,"percentage injected dose, liver",[2]; 5 min,19.47 % ID
same,"percentage injected dose, lung",[2]; 5 min,1.40 % ID
same,"percentage injected dose, thyroid",[2]; 5 min,0.16 % ID
same,"percentage injected dose, urine",[2]; 5 min,0.04 % ID
same,"percentage injected dose, Blood",[2]; 15 min,4.14 % ID
same,"percentage injected dose, Brain",[2]; 15 min,0.75 % ID
same,"percentage injected dose, Fat",[2]; 15 min,36.31 % ID
same,"percentage injected dose, Kidney",[2]; 15 min,1.60 % ID
same,"percentage injected dose, LI (large intestines)",[2]; 15 min,1.77 % ID
same,"percentage injected dose, Muscle",[2]; 15 min,19.83 % ID
same,"percentage injected dose, SI (small intestines)",[2]; 15 min,12.60 % ID
same,"percentage injected dose, Skin",[2]; 15 min,12.80 % ID
same,"percentage injected dose, Spleen",[2]; 15 min,0.32 % ID
same,"percentage injected dose, Stomach",[2]; 15 min,2.56 % ID
same,"percentage injected dose, inj site",[2]; 15 min,1.86 % ID
same,"percentage injected dose, liver",[2]; 15 min,7.48 % ID
same,"percentage injected dose, lung",[2]; 15 min,0.49 % ID
same,"percentage injected dose, thyroid",[2]; 15 min,0.16 % ID
same,"percentage injected dose, urine",[2]; 15 min,2.10 % ID
same,"percentage injected dose, Blood",[2]; 30 min,3.58 % ID
same,"percentage injected dose, Brain",[2]; 30 min,0.49 % ID
same,"percentage injected dose, Fat",[2]; 30 min,59.02 % ID
same,"percentage injected dose, Kidney",[2]; 30 min,0.95 % ID
same,"percentage injected dose, LI (large intestines)",[2]; 30 min,1.90 % ID
same,"percentage injected dose, Muscle",[2]; 30 min,12.59 % ID
same,"percentage injected dose, SI (small intestines)",[2]; 30 min,21.93 % ID
same,"percentage injected dose, Skin",[2]; 30 min,16.90 % ID
same,"percentage injected dose, Spleen",[2]; 30 min,0.19 % ID
same,"percentage injected dose, Stomach",[2]; 30 min,6.66 % ID
same,"percentage injected dose, inj site",[2]; 30 min,3.05 % ID
same,"percentage injected dose, liver",[2]; 30 min,4.46 % ID
same,"percentage injected dose, lung",[2]; 30 min,0.48 % ID
same,"percentage injected dose, thyroid",[2]; 30 min,0.39 % ID
same,"percentage injected dose, urine",[2]; 30 min,1.63 % ID
same,"percentage injected dose, Blood",[2]; 60 min,2.77 % ID
same,"percentage injected dose, Brain",[2]; 60 min,0.29 % ID
same,"percentage injected dose, Fat",[2]; 60 min,73.92 % ID
same,"percentage injected dose, Kidney",[2]; 60 min,0.63 % ID
same,"percentage injected dose, LI (large intestines)",[2]; 60 min,7.75 % ID
same,"percentage injected dose, Muscle",[2]; 60 min,7.79 % ID
same,"percentage injected dose, SI (small intestines)",[2]; 60 min,28.42 % ID
same,"percentage injected dose, Skin",[2]; 60 min,17.14 % ID
same,"percentage injected dose, Spleen",[2]; 60 min,0.15 % ID
same,"percentage injected dose, Stomach",[2]; 60 min,8.98 % ID
same,"percentage injected dose, inj site",[2]; 60 min,1.83 % ID
same,"percentage injected dose, liver",[2]; 60 min,3.12 % ID
same,"percentage injected dose, lung",[2]; 60 min,0.34 % ID
same,"percentage injected dose, thyroid",[2]; 60 min,0.17 % ID
same,"percentage injected dose, urine",[2]; 60 min,8.39 % ID
same,"percentage injected dose, Blood",[2]; 120 min,2.27 % ID
same,"percentage injected dose, Brain",[2]; 120 min,0.18 % ID
same,"percentage injected dose, Fat",[2]; 120 min,55.62 % ID
same,"percentage injected dose, Kidney",[2]; 120 min,0.45 % ID
same,"percentage injected dose, LI (large intestines)",[2]; 120 min,3.12 % ID
same,"percentage injected dose, Muscle",[2]; 120 min,5.60 % ID
same,"percentage injected dose, SI (small intestines)",[2]; 120 min,26.86 % ID
same,"percentage injected dose, Skin",[2]; 120 min,12.89 % ID
same,"percentage injected dose, Spleen",[2]; 120 min,0.08 % ID
same,"percentage injected dose, Stomach",[2]; 120 min,9.29 % ID
same,"percentage injected dose, inj site",[2]; 120 min,2.62 % ID
same,"percentage injected dose, liver",[2]; 120 min,2.39 % ID
same,"percentage injected dose, lung",[2]; 120 min,0.23 % ID
same,"percentage injected dose, thyroid",[2]; 120 min,0.95 % ID
same,"percentage injected dose, urine",[2]; 120 min,10.02 % ID
